In patent US20230011571A1, “SMALL MOLECULE FURIN INHIBITORS FOR TREATING INFECTIOUS DISEASES” (BP Asset V, Inc., priority 2019, published 2023):
≈ marks a conversion by molar mass, not a printed value. Read-outs that look alike come from different tables or passages of the source.

What was measured:
Format in all cases: cell-based
[1] = test system: Japanese encephalitis virus (SA-14; Vero 76); assay: In vitro viral inhibition, Japanese encephalitis virus
[2] = test system: Venezuelan equine encephalitis (TC-83; Vero 76); assay: cells
Measles (CC; Vero 76) = assay: In vitro viral inhibition, Measles; settings: Measles morbillivirus, strain CC, Vero 76 cells
Description: (§1) In vitro studies of the antiviral activity were also carried out for several viruses using Example 369.

[3] = test system: Usutu virus (TC-508; Vero 76); assay: In vitro viral inhibition, Usutu virus; settings: strain TC-508, Vero 76 cells
Description: as §1

[4] = test system: Western equine encephalitis (California; Vero 76); assay: cells
[5] = test system: Chikungunya (S27; Vero 76); assay: In vitro viral inhibition, Chikungunya; settings: Chikungunya virus
[6] = test system: Chikungunya virus (CHIKV); assay: microbe, parasite or virus in culture; settings: Chikungunya virus, Vero, 48 h, read-out: Percent viral inhibition CHKV
[7] = test system: Powassan virus (LB; BHK-21); assay: microbe, parasite or virus in culture
dengue virus (DENV) = assay: microbe, parasite or virus in culture; settings: Dengue virus, Vero, 120 h, read-out: Percent viral inhibition DENY
Marburg virus (MARV) = assay: organism not typed; settings: Vero, 72 h, read-out: Percent viral inhibition MARV
[8] = test system: Respiratory syncytial virus (A2; RD); assay: In vitro viral inhibition, Respiratory syncytial virus; settings: human respiratory syncytial virus
Description: as §1

[9] = test system: Mayaro virus (BE AR 505411; Vero 76); assay: In vitro viral inhibition, Mayaro virus; settings: strain BE AR 505411, Vero 76 cells
Description: as §1

[10] = test system: Dengue Virus 2 (New Guinea C; Huh7); assay: In vitro viral inhibition, Dengue Virus 2
[11] = test system: Yellow Fever (YFV 17D; Huh7); assay: microbe, parasite or virus in culture
[12] = test system: Eastern equine encephalitis (FL39-939; Vero 76); assay: cells
[13] = Vero 76, read-out: EC50 (ug/mL) (Neutral Red (NR) Assay)
[14] = Vero 76, read-out: EC50 (ug/mL) (VIS Drug Assay)
[15] = Neutral Red assay, read-out: EC50 (ug/mL) (Neutral Red (NR) Assay)
[16] = VIS assay, read-out: EC50 (ug/mL) (VIS Drug Assay)
[17] = Huh-7, read-out: EC50 (ug/mL) (Neutral Red (NR) Assay)
[18] = Huh-7, read-out: EC50 (ug/mL) (VIS Drug Assay)

CC(=O)NCC1CCN(Cc2cc(Oc3cnc(N4CCN(CCC(C)C(=O)O)CC4)nc3)nc(-c3cc(Cl)cc(Cl)c3)c2)CC1 (stereo not drawn) [Example 369, 4-(4-(5-((4-((4-(acetamidomethyl)piperidin-1-yl)methyl)-6-(3,5-dichlorophenyl)pyridin-2-yl)oxy)pyrimidin-2-yl)piperazin-1-yl)-2-methylbutanoic acid]
EC50 [1, 13]: 3 µg/mL (≈ 4.47 µM) | EC50 [1, 14]: 0.32 µg/mL (≈ 0.477 µM) | EC50 [2, 13]: 0.77 µg/mL (≈ 1.15 µM) | EC50 [2, 14]: 0.55 µg/mL (≈ 0.82 µM) | EC50 (Measles (CC; Vero 76); [15]): < 0.1 µg/mL | EC50 (Measles (CC; Vero 76); [16]): < 0.1 µg/mL | EC50 [3, 15]: 5.8 µg/mL (≈ 8.65 µM) | EC50 [3, 16]: 2.7 µg/mL (≈ 4.03 µM) | EC50 [4, 13]: < 0.1 µg/mL | EC50 [4, 14]: < 0.1 µg/mL | EC50 [5, 13]: 0.18 µg/mL (≈ 0.268 µM) | EC50 [5, 14]: 0.12 µg/mL (≈ 0.179 µM) | inhibition at 1 µM [6]: 32.9% | EC50 ([7]; BHK-21, read-out: EC50 (ug/mL) (Neutral Red (NR) Assay)): < 0.1 µg/mL | EC50 ([7]; BHK-21, read-out: EC50 (ug/mL) (VIS Drug Assay)): < 0.1 µg/mL | inhibition at 1 µM (dengue virus (DENV)): 33.3% | inhibition at 1 µM (Marburg virus (MARV)): 47.1% | EC50 ([8]; read-out: EC50 (ug/mL) (Neutral Red (NR) Assay)): 0.3 µg/mL (≈ 0.447 µM) | EC50 ([8]; read-out: EC50 (ug/mL) (VIS Drug Assay)): 28 µg/mL (≈ 41.8 µM) | EC50 [9, 15]: 0.28 µg/mL (≈ 0.418 µM) | EC50 [9, 16]: 0.32 µg/mL (≈ 0.477 µM) | EC50 [10, 17]: < 0.1 µg/mL | EC50 [10, 18]: < 0.1 µg/mL | EC50 [11, 17]: 0.18 µg/mL (≈ 0.268 µM) | EC50 [11, 18]: 0.18 µg/mL (≈ 0.268 µM) | EC50 [12, 13]: < 0.1 µg/mL | EC50 [12, 14]: < 0.1 µg/mL

CC(=O)NCC1CCN(Cc2cc(Oc3cnc(N4CCN(CCC(C)(C)C(=O)O)CC4)nc3)nc(-c3cc(Cl)cc(Cl)c3)c2)CC1 [Example 370, 4-(4-(5-((4-((4-(acetamidomethyl)piperidin-1-yl)methyl)-6-(3,5-dichlorophenyl)pyridin-2-yl)oxy)pyrimidin-2-yl)piperazin-1-yl)-2,2-dimethylbutanoic acid]
inhibition at 1 µM [6]: 24.6% | inhibition at 1 µM (dengue virus (DENV)): 41.7% | inhibition at 1 µM (Marburg virus (MARV)): 57%

CC(=O)NCC1CCN(Cc2cc(Oc3cnc(N4CCN(C(C)CCS(C)(=O)=O)CC4)nc3)nc(-c3cc(F)cc(Cl)c3)c2)CC1 (stereo not drawn) [Example 372, N-((1-((2-(3-chloro-5-fluorophenyl)-6-((2-(4-(4-(methylsulfonyl)butan-2-yl)piperazin-1-yl)pyrimidin-5-yl)oxy)pyridin-4-yl)methyl)piperidin-4-yl)methyl)acetamide]
inhibition at 1 µM [6]: 18.2% | inhibition at 1 µM (dengue virus (DENV)): 81.8% | inhibition at 1 µM (Marburg virus (MARV)): 45.3%

CNC(=O)NCC1CCN(Cc2cc(Oc3cnc(N4CCN(C(C)CCS(C)(=O)=O)CC4)nc3)nc(-c3cc(F)cc(Cl)c3)c2)CC1 (stereo not drawn) [Example 373, 1-((1-((2-(3-chloro-5-fluorophenyl)-6-((2-(4-(4-(methylsulfonyl)butan-2-yl)piperazin-1-yl)pyrimidin-5-yl)oxy)pyridin-4-yl)methyl)piperidin-4-yl)methyl)-3-methylurea]
inhibition at 1 µM [6]: 28.8% | inhibition at 1 µM (dengue virus (DENV)): 53.4% | inhibition at 1 µM (Marburg virus (MARV)): 67.8%

CN1CCCN(c2ncc(Oc3cc(CN4CCC(CC(=O)O)CC4)cc(-c4cc(F)cc(Cl)c4)n3)cn2)CC1 [Example 374, 2-(1-((2-(3-chloro-5-fluorophenyl)-6-((2-(4-methyl-1,4-diazepan-1-yl)pyrimidin-5-yl)oxy)pyridin-4-yl)methyl)piperidin-4-yl)acetic acid]
inhibition at 1 µM [6]: 17.6% | inhibition at 1 µM (dengue virus (DENV)): 38.5% | inhibition at 1 µM (Marburg virus (MARV)): 48.6%

CN1CCN(c2ncc(Oc3cc(-c4cc(Cl)cc(Cl)c4)cc(CN4CCC(CC(=O)O)CC4)c3F)cn2)CC1 [Example 376, 2-(1-((3′,5′-dichloro-4-fluoro-5-((2-(4-methylpiperazin-1-yl)pyrimidin-5-yl)oxy)-[1,1′-biphenyl]-3-yl)methyl)piperidin-4-yl)acetic acid]
inhibition at 1 µM [6]: 13.5% | inhibition at 1 µM (dengue virus (DENV)): 0% | inhibition at 1 µM (Marburg virus (MARV)): 12.7%

CN1CCN(c2ncc(Oc3nc(-c4cc(Cl)cc(Cl)c4)cc(CN4CCC(CC(=O)O)CC4)c3F)cn2)CC1 [Example 379, 2-(1-((6-(3,5-dichlorophenyl)-3-fluoro-2-((2-(4-methylpiperazin-1-yl)pyrimidin-5-yl)oxy)pyridin-4-yl)methyl)piperidin-4-yl)acetic acid]
inhibition at 1 µM [6]: 41.5% | inhibition at 1 µM (dengue virus (DENV)): 35.2% | inhibition at 1 µM (Marburg virus (MARV)): 51.2%

COC(=O)CCN1CCN(c2ccc(Oc3cc(CN4CCC(CNC(C)=O)CC4)cc(-c4cc(Cl)cc(Cl)c4)n3)cn2)CC1 [Example 385, methyl3-(4-(5-((4-((4-(acetamidomethyl)piperidin-1-yl)methyl)-6-(3,5-dichlorophenyl)pyridin-2-yl)oxy)pyridin-2-yl)piperazin-1-yl)propanoate]
inhibition at 1 µM [6]: 14.9% | inhibition at 1 µM (dengue virus (DENV)): 48.5% | inhibition at 1 µM (Marburg virus (MARV)): 56.7%

O=C(O)CC1CCN(Cc2cc(Oc3cnc(N4CCN(Cc5cnn[nH]5)CC4)nc3)nc(-c3cc(Cl)cc(Cl)c3)c2)CC1 [Example 387, 2-(1-((2-((2-(4-((1H-l,2,3-triazol-5-yl)methyl)piperazin-1-yl)pyrimidin-5-yl)oxy)-6-(3,5-dichlorophenyl)pyridin-4-yl)methyl)piperidin-4-yl)acetic acid]
inhibition at 1 µM [6]: 36.3% | inhibition at 1 µM (dengue virus (DENV)): 39.9% | inhibition at 1 µM (Marburg virus (MARV)): 41.4%

CC(=O)NCC1CCN(Cc2cc(Oc3cnc(N4CCN(CCC(N)=O)CC4)cn3)nc(-c3cc(Cl)cc(Cl)c3)c2)CC1 [Example 391]
inhibition at 1 µM [6]: 14% | inhibition at 1 µM (dengue virus (DENV)): 51.4% | inhibition at 1 µM (Marburg virus (MARV)): 35.4%

CCC(=O)NCC1CCN(Cc2cc(Oc3cnc(N4CCN(CCC(C)C(=O)O)CC4)cn3)nc(-c3cc(Cl)cc(Cl)c3)c2)CC1 (stereo not drawn) [Example 392, 4-(4-(5-((6-(3,5-dichlorophenyl)-4-((4-(propionamidomethyl)piperidin-1-yl)methyl)pyridin-2-yl)oxy)pyrazin-2-yl)piperazin-1-yl)-2-methylbutanoic acid]
inhibition at 1 µM [6]: 15.8% | inhibition at 1 µM (dengue virus (DENV)): 34.9% | inhibition at 1 µM (Marburg virus (MARV)): 60.6%

COC(=O)NCC1CCN(Cc2cc(Oc3cnc(N4CCN(C)CC4)cn3)nc(-c3cc(Cl)cc(Cl)c3)c2)CC1 [Example 395, methyl((1-((2-(3,5-dichlorophenyl)-6-((5-(4-methylpiperazin-1-yl)pyrazin-2-yl)oxy)pyridin-4-yl)methyl)piperidin-4-yl)methyl)carbamate]
inhibition at 1 µM [6]: 0% | inhibition at 1 µM (dengue virus (DENV)): 88.2% | inhibition at 1 µM (Marburg virus (MARV)): 37.2%

CC(=O)NCC1CCN(Cc2cc(Oc3cnc(N4CCN(CCC(C)C(=O)O)CC4)cn3)nc(-c3cc(Cl)cc(Cl)c3)c2)CC1 (stereo not drawn) [Example 396, 4-(4-(5-((4-((4-(acetamidomethyl)piperidin-1-yl)methyl)-6-(3,5-dichlorophenyl)pyridin-2-yl)oxy)pyrazin-2-yl)piperazin-1-yl)-2-methylbutanoic acid]
inhibition at 1 µM [6]: 21.5% | inhibition at 1 µM (dengue virus (DENV)): 46.3% | inhibition at 1 µM (Marburg virus (MARV)): 26.7%

CN1CCCN(c2ncc(Oc3cc(CN4CC[C@@H]5[C@H](CC4)[C@H]5C(=O)O)cc(-c4cc(Cl)cc(Cl)c4)n3)cn2)CC1 [Example 397, (1R,7S,8r)-4-((2-(3,5-dichlorophenyl)-6-((2-(4-methyl-1,4-diazepan-1-yl)pyrimidin-5-yl)oxy)pyridin-4-yl)methyl)-4-azabicyclo[5.1.0]octane-8-carboxylic acid]
inhibition at 1 µM [6]: 25.1% | inhibition at 1 µM (dengue virus (DENV)): 38.7% | inhibition at 1 µM (Marburg virus (MARV)): 46.2%
